US20250201957A1, “SEPARATION RECOVERY METHOD OF METAL IONS AND ACIDIC METAL EXTRACTANT” (FUJIFILM Corporation, priority 2022, published 2025)
Like-named read-outs stand apart in the source and are kept apart here.

Assay: pKa of metal extractant by neutralization titration
Format: physicochemical
From the text: The acidic metal extractant includes two or more coordinating functional groups, and at least one of the coordinating functional groups includes a carboxy group or each of acidic coordinating functional groups where one of R^C's represents a hydrogen atom. In the present invention, the acidic metal extractant is an acidic metal extractant for dissociating hydrogen ions (H^+) and can be defined by an acid dissociation constant pKa. For example, an acidic metal extractant having pkA of 0.1 to 12 is preferable, an acidic metal extractant having pkA of 0.5 to 12 is more preferable, and an acidic metal extractant having pkA of 1 to 8 is still more preferable. In the present invention, the pKa is a value measured by neutralization titration.
Regarding the synthesized or prepared acidic metal extractant, the molecular weight and the pKa calculated using the above-described method are shown in Table 1-2.

Row | Compound | pKa | pKa (read-out: pKa)
1 | Versatic acid 10 [VA-10, reference compound] | 7.9 | –
2 | CCCCC(CC)COP(=O)(CP(=O)(OCC)OCC(CC)CCCC)OCC (stereo not shown) [E-7] | None | –
3 | CCCCC(CC)COP(=O)(O)CCCP(=O)(O)OCC(CC)CCCC (stereo not shown) [E-1] | – | 1.1
4 | CCCCC(CC)COP(=O)(O)CP(=O)(OCC)OCC(CC)CCCC (stereo not shown) [E-3] | – | 2.1
5 | CCCCC(CC)COP(=O)(O)C(C)(O)P(=O)(O)OCC(CC)CCCC (stereo not shown) [E-8] | – | 1.1
6 | CCCCC(CC)COP(=O)(O)CP(=O)(O)OCC(CC)CCCC (stereo not shown) [E-2] | – | 0.8
7 | CCCCC(CC)COP(=O)(O)CCP(=O)(O)OCC(CC)CCCC (stereo not shown) [E-5] | – | 0.9
8 | CCCCC(CC)COP(=O)(O)CC(CC)CCCC (stereo not shown) [PC-88A, mono-2-ethylhexyl (2-Ethylhexyl)phosphonate, reference compound] | – | 4.6
9 | CCCCCCCCOP(=S)(S)CP(=S)(S)OCCCCCCCC (stereo not shown) [E-6] | – | 0.3
10 | CCCCC(CC)CC(CC(CC)CCCC)(C(=O)O)C(=O)O (stereo not shown) [E-4] | – | 6.5
